Measured values as given in patent US7425579B2, “Methods for inhibiting activity of polyamine transporters” (Universite Laval, priority 1998, dated 2008).

Key:
[1] = system: T-47D cells; experiment: Reversal of DFMO-induced cytostasis by exogenous spermidine in T-47D cells; format: cell-based, human; conditions: 50 μM BNSD-X (167-fold excess over 0.3 μM spermidine); 2 mM DFMO
Method: FIGS. 6A, 6B, 6C and 6D are graph showing that antagonism of DFMO-induced cytostasis by exogenous spermidine depends on the polyamine and linker structure of the compounds used in a method according to a preferred embodiment of the invention. In particular, T-47D cells were grown for 8-9 d with the indicated concentrations of spermidine in medium containing 1 mM aminoguanidine, in the presence of DFMO (●), transport inhibitor (□), DFMO plus transport inhibitor (▪), or in the absence of either agent (∘), and total DNA content per culture was then determined. Panels A, B, C, and D describe the effect of BNSD-X, BSD-X, BNSD-3 and BSD-3, respectively. Data are presented as the mean±SD for triplicate cultures from one out of at least two identical experiments;
(§1) FIGS. 8A and 8B are graphs representing the time course of the effect of a compound used in a method according to a preferred embodiment of the invention on rescue of DFMO-induced cytostasis by exogenous spermidine. In particular, at time zero, T-47D (panel A) or CHO-K1 (panel B) were seeded at 1×10^4 or 5×10^3 cells/well, respectively, in medium containing 1 mM aminoguanidine, plus either 0.3 μM spermidine (Spd, ●), 2 mM DFMO (□), Spd+DFMO (▪), 50 μM (A) or 100 μM (B) BNSD-X (Δ), BNSD-X+Spd (▴), BNSD-X+DFMO (□), BNSD-X+Spd+DFMO (▾), or vehicle only (∘). At the indicated time, total DNA content/well was determined. Data are presented as the mean±SD for triplicate cultures from one representative experiment;
(§2) To determine the ability of polyamine transport antagonists to potentiate DFMO-induced inhibition of cell proliferation in the presence of exogenous polyamines, cells were grown for the indicated period in growth medium supplemented with 1 mM aminoguanidine, and either DFMO (1 to 5 mM), the indicated transport inhibitor (50 or 100 μM), or the combination thereof, as well as increasing concentrations of spermidine (0.1 to 300 μM). Fresh medium was added every other day, and cell mass was determined at various time points during the period of exponential growth, or at the end of the experimental period. For the latter experiments, the FBS supplement was replaced with dextran-coated charcoal-treated FBS (5%, v/v) plus 0.5 μg/ml insulin in the case of T-47D, ZR-75-1 and MCF-7 cells (U.S. Pat. No. 6,083,496).

[2] = system: mammalian polyamine carrier; experiment: Determination of polyamine uptake activity: inhibition of diamine and polyamine transport in T-47D cells; format: cell-based, human; conditions: T-47D breast cancer cells; mean±SD; read-out: Ki, inhibition of [3H]putrescine uptake
[3] = system: CHO-K1 cells; experiment: Reversal of DFMO-induced cytostasis by exogenous spermidine in CHO-K1 cells; format: cell-based, Chinese hamster
Method: as §1, §2

SMILES: NCCCN(CCCN)Cc1ccc(CN(CCCN)CCCN)cc1 [28a, N,N,N′,N′-tetrakis-(3-aminopropyl)-p-diaminoxylene]
- effect on growth inhibition by DFMO, T-47D [1]: did not markedly increase the extent of growth inhibition observed with DFMO alone
- Ki [2]: 160 ± 30 nM
- effect on the antiproliferative action of DFMO in the nominal absence of exogenous polyamines, CHO-K1 ([3]; 100 μM BNSD-X, 2 mM DFMO): strongly potentiated the antiproliferative effect of DFMO
- effect on spermidine-mediated reversal of DFMO-induced growth inhibition, CHO-K1 ([3]; DFMO-treated CHO-K1 cells with extracellular spermidine, data not shown): afforded increased resistance to exogenous spermidine
